Measured values reported in publication PMC5876303, “Discovery of C-3 Tethered 2-oxo-benzo[1,4]oxazines as Potent Antioxidants: Bio-Inspired Based Design, Synthesis, Biological Evaluation, Cytotoxic, and in Silico Molecular Docking Studies” (Frontiers in Chemistry, 2018).
Entries after “also recorded” stand apart in the source; their conditions may differ.

Key:
[1] = Ferric reducing antioxidant power (FRAP) assay; format: biochemical; conditions: for FRAP potency compared with standard reference BHT: in words, BHT C0.5FRAP = 546.0 ± 13.6 μM; for FRAP assay (C0.5FRAP): mean ± SD, n = 3, concentration equivalent to FeSO4 at 0.5 mmol/L, 37°C, 30 min, 593 nm
Method: The FRAP reagent was prepared by the addition of freshly prepared 20.0 mM FeCl3.6H2O solution, 10.0 mM of […] (TPTZ) solution and 300 mM sodium acetate buffer (pH 3.6) in a ratio of 1:1:10 (v/v/v). After that, Sample (our synthesized 2-oxo-2-phenylethylidenes-linked 2-oxo-benzo[1,4]oxazines 20a-ab) was added to 3 ml of freshly prepared FRAP reagent and this reaction mixture was incubated at 37°C temperature for 30 min. and the absorbance was measured at 593 nm. It is also noted that, a freshly prepared solution of FeSO4 was used for calibration of standard curve. The FRAP antioxidant capability were evaluated in terms of C0.5FRAP (the antioxidant capability of samples related to their concentration, which is equivalent to that of FeSO4 at 0.5 mmol/L) (Benzie and Strain, [1996]).
The FRAP assay was deliberated using the method as illustrated by Benzie and Strain (Benzie and Strain, [1996]). […] The reducing nature of an antioxidant depends on their property to donate a hydrogen atom for the breaking of the free radical chain, which is responsible for oxidative stress etc.

[2] = DPPH radical scavenging antioxidant assay; format: biochemical; conditions: Table 1; mean ± SD, n = 3; 517 nm after 20 min
Method: In DPPH radical scavenging method the plant extract (0.75 mL) at different concentrations ranging from 10 to 100 μg mL^−1 was mixed with 1.5 mL of a DPPH methanolic solution (20 mg L^−1). Pure methanol was taken as control and ascorbic acid (vitamin C), vitamins A and E were used as a reference compounds. The absorbance was measured at 517 nm after 20 min of reaction. The % of DPPH decolouration of the sample was calculated according to the formula (Sharma and Bhat, [2009]).
Decolouration % = [1−(Abs SAMPLE/Abs CONTROL)]×100
The decolouration was plotted against the sample extract concentration and a logarithmic regression curve was established in order to calculate the IC50. The results are expressed as antiradical efficiency (AE), which is 1000-fold inverse of the IC50 value AE=1000/ IC50.

Row | melting point [°C] | DPPH assay IC50 [2] [µg/mL] | SMILES | FRAP potency compared with standard reference BHT [1] | FRAP assay (C0.5FRAP) [1] [µM]
1 | 185 to 187 | 28.8 ± 0.6 | O=C1Oc2ccc(Cl)cc2N/C1=C\C(=O)c1ccccc1 [Compound 20c, (Z)-6-chloro-3-(2-oxo-2-phenylethylidene)-3,4-dihydro-2H-benzo[b][1,4]oxazin-2-one] | greater potency; also recorded: more potent than standard reference BHT | 467.8 ± 22.4
2 | 240 to 242 | 12.53 ± 0.09 | O=C1Oc2cc([N+](=O)[O-])ccc2N/C1=C\C(=O)c1ccccc1 [Compound 20w, (Z)-7-nitro-3-(2-oxo-2-phenylethylidene)-3,4-dihydro-2H-benzo[b][1,4]oxazin-2-one] | less active than BHT | 597.4 ± 26.4
3 | 182 to 185 | 92.2 ± 1.54 | O=C1Oc2ccc(Cl)cc2N/C1=C\C(=O)c1ccc(Cl)cc1 [Compound 20e, (Z)-6-chloro-3-(2-(4-chlorophenyl)-2-oxoethylidene)-3,4-dihydro-2H-benzo[b][1,4]oxazin-2-one] | – | –
4 | 155 to 157 | 45.2 ± 0.92 | O=C1Oc2ccc(Cl)cc2N/C1=C\C(=O)c1ccc(F)cc1 [Compound 20d, (Z)-6-chloro-3-(2-(4-fluorophenyl)-2-oxoethylidene)-3,4-dihydro-2H-benzo[b][1,4]oxazin-2-one] | – | 732.7 ± 41.6
5 | – | 24.4 ± 0.46 | Cc1cc(Br)c2c(c1)N/C(=C\C(=O)c1ccccc1)C(=O)O2 [Compound 20m, (Z)-8-bromo-6-methyl-3-(2-oxo-2-phenylethylidene)-3,4-dihydro-2H-benzo[b][1,4]oxazin-2-one] | greater potency; also recorded: more potent than standard reference BHT | 536.7 ± 21.4
6 | 160 to 162 | 44.8 ± 0.81 | Cc1ccc(C(=O)/C=C2\Nc3cc(Cl)ccc3OC2=O)cc1 [Compound 20h, (Z)-6-chloro-3-(2-oxo-2-(p-tolyl)ethylidene)-3,4-dihydro-2H-benzo[b][1,4]oxazin-2-one] | – | 821.9 ± 38.7
7 | – | 10.2 ± 0.08 | O=C1Oc2ccccc2N/C1=C\C(=O)c1ccccc1 [Compound 20a, (Z)-3-(2-oxo-2-phenylethylidene)-3,4-dihydro-2H-benzo[b][1,4]oxazin-2-one] | less active than BHT | 611.5 ± 23.2
8 | 207 to 209 | 21.3 ± 0.28 | O=C1Oc2ccccc2N/C1=C\C(=O)c1ccc([N+](=O)[O-])cc1 [Compound 20s, (Z)-3-(2-(4-nitrophenyl)-2-oxoethylidene)-3,4-dihydro-2H-benzo[b][1,4]oxazin-2-one] | less active | 618.4 ± 23.9

The next lines start with the compound.

Row | SMILES | melting point [°C] | DPPH assay IC50 [2] [µg/mL] | FRAP potency compared with standard reference BHT [1] | FRAP assay (C0.5FRAP) [1] [µM]
9 | COc1ccc(C(=O)/C=C2\Nc3ccc([N+](=O)[O-])cc3OC2=O)cc1 [Compound 20ab, (Z)-3-(2-(4-methoxyphenyl)-2-oxoethylidene)-7-nitro-3,4-dihydro-2H-benzo[b][1,4]oxazin-2-one] | – | 43.6 ± 0.74 | – | –
10 | O=C1Oc2ccc(Cl)cc2N/C1=C\C(=O)c1ccc(Br)cc1 [Compound 20g, (Z)-3-(2-(4-bromophenyl)-2-oxoethylidene)-6-chloro-3,4-dihydro-2H-benzo[b][1,4]oxazin-2-one] | 175 to 177 | 61.2 ± 1.23 | – | 798.6 ± 32.5
11 | COc1ccc(C(=O)/C=C2\Nc3cc(Cl)ccc3OC2=O)cc1 [Compound 20i, (Z)-6-chloro-3-(2-(4-methoxyphenyl)-2-oxoethylidene)-3,4-dihydro-2H-benzo[b][1,4]oxazin-2-one] | – | 34.9 ± 0.73 | – | 648.2 ± 29.5
12 | COc1ccc(C(=O)/C=C2\Nc3cc(C)ccc3OC2=O)cc1 [Compound 20l, (Z)-3-[2-(4-methoxy-phenyl)-2-oxo-ethylidene]-6-methyl-3,4-dihydro-benzo[1,4]oxazin-2-one] | 180 to 182 | 43.8 ± 0.85 | – | –
13 | Cc1ccc2c(c1)N/C(=C\C(=O)c1ccc(F)cc1)C(=O)O2 [Compound 20j, (Z)-3-(2-(4-fluorophenyl)-2-oxoethylidene)-6-methyl-3,4-dihydro-2H-benzo[1,4]oxazin-2-one] | – | 34.4 ± 0.7 | more potent than standard reference BHT | 502.6 ± 18.2
14 | Cc1cc(Br)c2c(c1)N/C(=C\C(=O)c1ccc(Cl)cc1Cl)C(=O)O2 [Compound 20o, (Z)-8-bromo-3-(2-(2,4-dichlorophenyl)-2-oxoethylidene)-6-methyl-3,4-dihydro-2H-benzo [b][1,4]oxazin-2-one] | – | 22.5 ± 0.64 | – | 641.6 ± 28.7
15 | Cc1cc(C(C)(C)C)c(O)c(C(C)(C)C)c1 [BHT, reference compound] | – | – | – | 546.0 ± 13.6
16 | Cc1ccc(C(=O)/C=C2\Nc3cc(C)cc(Br)c3OC2=O)cc1 [Compound 20q, (Z)-8-bromo-6-methyl-3-(2-oxo-2-(p-tolyl)ethylidene)-3,4-dihydro-2H-benzo[b][1,4]oxazin-2-one] | 219 to 220 | 36.24 ± 0.27 | – | –
17 | O=C1Oc2cc([N+](=O)[O-])ccc2N/C1=C\C(=O)c1ccc(Cl)cc1 [Compound 20y, (Z)-3-(2-(4-chlorophenyl)-2-oxoethylidene)-7-nitro-3,4-dihydro-2H-benzo[b][1,4]oxazin-2-one] | 205 to 207 | 19.8 ± 0.35 | – | 708.2 ± 27.1
18 | O=C1Oc2ccc(Cl)cc2N/C1=C\C(=O)c1ccc(Cl)cc1Cl [Compound 20f, (Z)-6-chloro-3-(2-(2,4-dichlorophenyl)-2-oxoethylidene)-3,4-dihydro-2H-benzo[b][1,4]oxazine-2-One] | 135 to 137 | 56.6 ± 1.12 | – | –
19 | O=C1Oc2ccc([N+](=O)[O-])cc2N/C1=C\C(=O)c1ccc(F)cc1 [Compound 20u, (Z)-3-(2-(4-fluorophenyl)-2-oxoethylidene)-6-nitro-3,4-dihydro-2H-benzo[b][1,4]oxazin-2-one] | > 250 | 32.1 ± 0.52 | more potent than standard reference BHT | 424.5 ± 19.7
20 | Cc1ccc2c(c1)N/C(=C\C(=O)c1ccc([N+](=O)[O-])cc1)C(=O)O2 [Compound 20r, (Z)-6-methyl-3-(2-(4-nitrophenyl)-2-oxoethylidene)-3,4-dihydro-2H-benzo[1,4]oxazin-2-one] | – | 12.23 ± 0.05 | potent activity than BHT; also recorded: more potent than standard reference BHT | 328.6 ± 25.8
21 | COc1ccc(C(=O)/C=C2\Nc3cc([N+](=O)[O-])ccc3OC2=O)cc1 [Compound 20v, (Z)-3-(2-(4-methoxyphenyl)-2-oxoethylidene)-6-nitro-3,4-dihydro-2H-benzo[b][1,4]oxazin-2-one] | 195 to 197 | 43.6 ± 0.92 | – | –
22 | Cc1cc(Br)c2c(c1)N/C(=C\C(=O)c1ccc(F)cc1)C(=O)O2 [Compound 20n, (Z)-8-bromo-3-(2-(4-fluorophenyl)-2-oxoethylidene)-6-methyl-3,4-dihydro-2H-benzo[b][1,4] oxazin-2-one] | – | 16.9 ± 0.72 | more potent than standard reference BHT | 482.5 ± 35.5
23 | O=C1Oc2cc([N+](=O)[O-])ccc2N/C1=C\C(=O)c1ccc(Br)cc1 [Compound 20aa, (Z)-3-(2-(4-bromophenyl)-2-oxoethylidene)-7-nitro-3,4-dihydro-2H-benzo[b][1,4]oxazin-2-one] | 230 to 232 | 28.37 ± 0.16 | more potent than standard reference BHT | 518.6 ± 17.6
24 | O=C1Oc2cc([N+](=O)[O-])ccc2N/C1=C\C(=O)c1ccc(Cl)cc1Cl [Compound 20z, (Z)-3-(2-(2,4-dichlorophenyl)-2-oxoethylidene)-7-nitro-3,4-dihydro-2H-benzo[b][1,4]oxazin-2-one] | 208 to 210 | 28.8 ± 0.67 | more potent than standard reference BHT | 437.6 ± 39.4
25 | O=C1O[C@H]([C@@H](O)CO)C(O)=C1O [Ascorbic acid, reference compound] | – | 4.57 | – | –
26 | Cc1cc(Br)c2c(c1)N/C(=C\C(=O)c1ccc(Br)cc1)C(=O)O2 [Compound 20p, (Z)-8-bromo-3-(2-(4-bromophenyl)-2-oxoethylidene)-6-methyl-3,4-dihydro-2H-benzo[b] [1,4]oxazin-2-one] | 259 to 260 | 44.3 ± 0.45 | – | >1000
